Measurements as given in US8288399B2, “Medicine containing pyrimidine derivative” (BTG International Limited, priority 2001, dated 2012).
≈ marks a conversion by molar mass, not a printed value.

What was measured:
Assay type in all cases: cell-based
[1] = system: Mouse abdominal cavity macrophages; assay: Suppression of macrophage activation caused by LPS (control), nitrogen monoxide production (Griess); conditions: LPS 500 pg/ml instead of Aβ, 72 hours, culture medium containing only mouse interferon γ, NO production, read-out: IC50 (μg/ml) LPS
Experimental: (§1) Suppression of microglia activation caused by β-amyloid Mouse abdominal cavity macrophages were prepared as follows for use as a model for microglia. A mouse (C3H/He, N, male, 7-10 weeks old: Nippon SLC) was subjected to cervical vertebrae dislocation then sprayed with 70% ethanol, the skin of the abdomen was cut open leaving the muscularis, from 5 to 7 ml of PBS (phosphate buffered saline) were injected into the abdominal cavity using a 24 G injection needle, the back was squeezed firmly, then injection solution was drawn from the abdominal cavity using a 23 G injection needle. The cells in the collected solution were centrifugally sedimented (900 rpm, 5 minutes) and washed using PBS, then 8×10^4/well were inoculated onto a 96-well microplate in culture solution (DMEM (Sigma), 10% FBS (Gibco), 100 U/ml penicillin+100 μg/ml streptomycin (Sigma)) and cultured in a 5% CO2/95% air incubator at 37° C. The amount of nitrogen monoxide produced was taken as an indicator of macrophage activation. Specifically, the macrophages were incubated for 72 hours in the presence of 1) Aβ1-42 (20 μg/ml: Sigma), and 2) Aβ1-42 and the test compound, then 50 μl of Griess reagent (0.1% N-(1-naphthyl)ethylenediamine (Sigma), 1% sulphanilamide (Sigma), 3% H3PO4) were added to 50 μl of the supernatant, and the light absorbance at 570 nm was measured. It should be noted that this experiment was conducted in culture solution containing mouse interferon γ (250 U/ml: genzyme techne) and polymyxin B (10 μg/ml: Sigma). Also, the same operations were performed using zymosan A (140 ng/ml: Molecular Probes) or LPS (500 pg/ml: Sigma) instead of Aβ, as controls. For LPS, culture medium containing only mouse interferon γ was used.
(§2) The concentration when the absorbance in the presence of 2) Aβ and test compound was 50% of the absorbance when 1) only Aβ 1-42 was added was taken as IC50, and the activity of the compound was appraised in terms of this value.

[2] = system: Mouse abdominal cavity macrophages; assay: Suppression of macrophage activation caused by zymosan A (control), nitrogen monoxide production (Griess); conditions: zymosan A 140 ng/ml instead of Aβ, 72 hours, mouse interferon γ and polymyxin B, NO production, read-out: IC50 (μg/ml) zymosan A
Experimental: as §1, §2

[3] = system: Mouse abdominal cavity macrophages; assay: Suppression of macrophage (microglia model) activation caused by β-amyloid, nitrogen monoxide production (Griess); conditions: Aβ1-42 20 μg/ml, 72 hours, mouse interferon γ 250 U/ml and polymyxin B 10 μg/ml, NO production, absorbance at 570 nm
Experimental: as §1, §2

Work on `c1ccc(CCN2CCc3c(C4CC4)nc4ncnn4c32)cc1` [Compound A] yielded an IC50 [1] greater than 5 µg/mL, an IC50 [2] greater than 5 µg/mL and an IC50 [3] of 0.4 µg/mL (≈ 1.31 µM).
For `Cc1nc2ncnn2c2c1CCN2CCc1ccccc1` [Compound B], the IC50 [1] was greater than 5 µg/mL, the IC50 [2] was greater than 5 µg/mL and the IC50 [3] was 0.5 µg/mL (≈ 1.79 µM).
`Cc1nc2ncnn2c2c1CCN2C(C)c1ccccc1` (stereo not drawn) [Compound C] gave an IC50 [1] greater than 5 µg/mL, an IC50 [2] greater than 5 µg/mL and an IC50 [3] of 0.4 µg/mL (≈ 1.43 µM).
`Cc1nc2ncnn2c2c1CC(C)N2Cc1ccccc1F` (stereo not drawn) [Compound D] gave an IC50 [1] greater than 5 µg/mL, an IC50 [2] greater than 5 µg/mL and an IC50 [3] of 2.3 µg/mL (≈ 7.74 µM).
`Cc1nc2ncnn2c2c1CCN2Cc1ccccc1F` [Compound E] showed an IC50 [1] greater than 5 µg/mL, an IC50 [2] greater than 5 µg/mL and an IC50 [3] of 3.2 µg/mL (≈ 11.3 µM).
`Cc1nc2ncnn2c2c1CC(C)N2Cc1ccccc1Cl` (stereo not drawn) [Compound F] showed an IC50 [1] greater than 5 µg/mL, an IC50 [2] greater than 5 µg/mL and an IC50 [3] of 3.6 µg/mL (≈ 11.5 µM).
`Cc1nc2ncnn2c2c1ccn2Cc1ccccc1Cl` [Compound G] was tested, and the IC50 [1] was greater than 5 µg/mL, the IC50 [2] was greater than 5 µg/mL and the IC50 [3] was 3.8 µg/mL (≈ 12.8 µM).
`Cc1nc2ccnn2c2c1CCN2Cc1ccccc1` [Compound H] was tested, and the IC50 [1] was greater than 5 µg/mL, the IC50 [2] was greater than 5 µg/mL and the IC50 [3] was 4 µg/mL (≈ 15.1 µM).
`Cc1nc2ncnn2c2c1CCN2Cc1ccccc1` [Compound I] showed an IC50 [1] greater than 5 µg/mL, an IC50 [2] greater than 5 µg/mL and an IC50 [3] of 4.3 µg/mL (≈ 16.2 µM).
Compound `Cc1nc2ncnn2c2c1CCN2Cc1ccccc1Cl` [Compound J] has an IC50 [1] greater than 5 µg/mL, an IC50 [2] greater than 5 µg/mL and an IC50 [3] of 5 µg/mL (≈ 16.7 µM).
Work on `Cc1nc2ncnn2c2c1CCN2C(C)(C)c1ccccc1` [Compound K] yielded an IC50 [1] greater than 5 µg/mL, an IC50 [2] greater than 5 µg/mL and an IC50 [3] of 5 µg/mL (≈ 17 µM).
